Like-named read-outs stand apart in the source and are kept apart here.
Columns and labels:
[1] = Metabolic stability in liver microsomes (MLM); type: in vitro ADME, mice; conditions: 0.25 mg/mL protein; for half-life at 1 μM: mouse, liver microsomes, pH 7.4, 1 μM compound, read-out: T1/2 in mins (MLM); for Met Stab % (60 mins) MLM: percent remaining at 60 min, 1 μM compound, 1 mM NADPH
Protocol: Preparation of Potassium Phosphate Buffer, 50 mM (pH 7.4)
Potassium phosphate buffer (Kphos) was prepared by adding 0.647 g potassium phosphate monobasic (KH2PO4) and 3.527 g potassium phosphate dibasic (KH2PO4) to 400 mL of Milli-Q™ water. pH of the buffer was adjusted to 7.4 and volume was made up to 500 mL.
Preparation of Microsomes
Stock solutions of BRN2 inhibitors were prepared in DMSO at a concentration of 1 mM
Preparation of NADPH Solution
• Total Incubation volume: 100 μL • Compound concentration: 1 μM • Protein Concentration: 0.25 mg/mL • NADPH: 1 mM • Final DMSO contain: 0.1% • Number of replicates: 2 • Time points: 0, 5, 15, 30 and 60 min
From the above mix, 70 μL was added to individual wells of 96 well reaction plates and pre-incubated in a 37° C. water bath for 5 min. […] Reactions without NADPH and buffer controls (minus NADPH) at 0 min and 60 min were also incubated to rule out non-NADPH metabolism or chemical instability in the incubation buffer. All reactions were terminated using 100 μL of ice-cold acetonitrile containing internal standard at 0, 5, 15, 30 and 60 min.
Samples were monitored for parent compounds disappearance in MRM mode using LC-MS/MS.
The percent remaining of test compounds and positive control in each sample was determined by considering peak area ratio in the 0 minute sample as 100%. The Half-life of compounds in microsomes is calculated by formula: […]
In vitro intrinsic clearance (CL'int) (units in mL/min/kg) was calculated using the formula.
[formula] • For liver microsomes, scaling factor used was 45 mg microsomal protein per gm liver. • * Indicates liver weight (gm) which varies species wise. For mice the liver weights are 90 gm.

42D^ENZR cells = test: Cell proliferation, BRN2 expressing 42D cells (crystal violet); type: cell-based; conditions: for Growth Specificity: 42D (express BRN2) versus 16D (no BRN2) cells, result in words
Protocol: Step 3: Cell Proliferation
Plate 42DE^NZR (˜7000 cells per well) and 16D^CRPC (˜5000 cells per well) cells in 96 well plate with a volume of 100 μL per well. • 2. Next day 1 mL aliquots of media are combined with 3× the desired concentration of compounds. The aliquots are vortexed and 50 μL of each 3× concentration is added to the 100 μL of media in each well to give the ix desired concentration.
The following are the desired concentrations:
Approximately 72 hours later, 17 μL of 10% Glutaraldehyde is added to each well and plates are placed on a shaker for 20-30 minutes. • 4. Media is washed off the fixed cells by slow submersion in a container of water. Then the water is removed by tapping the plate upside down. • 5. 75 μL of Crystal Violet™ solution is added into the 96 well plates and placed on a shaker for ˜30 minutes. • 6. Media is washed off the fixed cells by repeated slow submersion in a container of water and the plates are allowed to dry over-night. • 7. Next day, 75 μL of Sorensen Solution is accurately pipetted into each well. The plates placed on a shaker for ˜30 minutes. • 8. Absorbance is measured in the plate at 590 nm.
There is a distinction in TABLES 1 and 2 difference between “Active” and “Specific” or “Specificity”.

[2] = 42D cells, proliferation, about 72 hours, read-out: 42D IC50
[3] = read-out: IC50 (effective on both 42D and 16D cells)

half-life at 1 μM [1] [min]	Met Stab % (60 mins) MLM [1] [%]	SMILES	Growth Specificity (42D^ENZR cells; about 72 hours)	IC50 (42D^ENZR cells; [2]) [µM]	IC50 (42D^ENZR cells; [3]) [µM]
> 60	94	O=C(O)c1cnc(N/N=C2/Cc3ccccc3C2=O)s1 [7-88]	Not specific	–	–
6	2	Cn1c(N/N=C2/Cc3ccccc3C2=O)nc2ccccc21 [7-79]	Specific but weak	> 15	–
7	0	Fc1ccc2nc(N/N=C3/CCc4ccccc43)sc2c1 [7-47]	Not effective on 42D or 16D cells	–	–
10	1	c1ccc2c(c1)CCC2c1cnn(-c2nc3ccccc3s2)c1 (stereo not shown) [7-43]	Not effective on 42D or 16D cells	–	–
21	14	Fc1cc(Br)c2c(c1)/C(=N\Nc1ccc3ccccc3n1)CC2 [7-45]	Not effective on 42D or 16D cells	–	–
16	8	O=C1/C(=N\Nc2nc3ccccc3o2)Cc2ccccc21 [7-77, (Z)-2-(2-(benzo[d]oxazol-2-yl)hydrazineylidene)-2,3-dihydro-1H-inden-1-one]	Not specific	–	–
12	1	O=C(Nc1nc2ccccc2s1)C1CCc2ccccc21 (stereo not shown) [7-51]	Not effective on 42D or 16D cells	–	–
34	28	CC1(C)/C(=N/Nc2nc3ccccc3s2)C(=O)c2ccccc21 [7-67, (Z)-2-(2-(benzo[d]thiazol-2-yl)hydrazineylidene)-3,3-dimethyl-2,3-dihydro-1H-inden-1-one]	not specific	–	–
11	2	O=C1/C(=N\Nc2nc3ccccc3s2)CCc2ccccc21 [7-89]	Not specific	–	–
10	1	O=C1/C(=N\Nc2nc3ccccc3[nH]2)Cc2ccccc21 [7-76, (Z)-2-(2-(1H-benzo[d]imidazol-2-yl)hydrazineylidene)-2,3-dihydro-1H-inden-1-one]	Not effective on 42D or 16D cells	–	–
17	7	Fc1cc(F)c2nc(N/N=C3\CCc4ccccc43)sc2c1 [7-39]	Not effective on 42D or 16D cells	–	–
> 60	98	O=C(O)c1csc(N/N=C2/Cc3ccccc3C2=O)n1 [7-87]	Not specific	–	–
< 5	0	COC(=O)C1/C(=N/Nc2nc3ccccc3s2)Cc2ccccc21 (stereo not shown) [7-68, methyl (E)-2-(2-(benzo[d]thiazol-2-yl)hydrazineylidene)-2,3-dihydro-1H-indene-1-carboxylate]	not specific	–	–
14	1	c1ccc2c(c1)CN(Nc1nc3ccccc3s1)C2 [7-49]	Not effective on 42D or 16D cells	–	–
47	35	N#Cc1ccc2nc(N/N=C3\CCc4ccccc43)sc2c1 [7-33]	Non-specific. Effective on both 42D and 16D cells	–	–
22	14	c1ccc2c(c1)CC/C2=N/Nc1ccc2ccccc2c1 [7-48]	Not effective on 42D or 16D cells	–	–

Further lines, the compound ahead of its results:

SMILES	half-life at 1 μM [1] [min]	Met Stab % (60 mins) MLM [1] [%]	Growth Specificity (42D^ENZR cells; about 72 hours)	IC50 (42D^ENZR cells; [2]) [µM]	IC50 (42D^ENZR cells; [3]) [µM]
Cc1ccc2nc(N/N=C3/CCc4ccccc43)sc2c1 [7-46]	13	5	Not effective on 42D or 16D cells	–	–
O=C1/C(=N\Nc2nc3ccccc3s2)Cc2cc(-c3ccccc3)ccc21 [7-98]	33	26	Specific to 42D	~2	–
c1ccc2c(c1)CC/C2=N/Nc1nccs1 [7-64]	8	0	Not effective on 42D or 16D cells	–	–
c1ccc2c(c1)CCC2c1ccc(-c2nc3ccccc3s2)o1 (stereo not shown) [7-44]	10	1	Not effective on 42D or 16D cells	–	–
O=C1/C(=N\Nc2ccc3ccccc3n2)Cc2ccccc21 [7-80, (Z)-2-(2-(quinolin-2-yl) hydrazineylidene)-2,3-dihydro-1H-inden-1-one]	10	4	Specific to 42D	–	–
O=C1c2ccccc2CC1/C=N/Nc1nc2ccccc2s1 (stereo not shown) [7-69, (E)-2-((2-(benzo[d]thiazol-2-yl)hydrazineylidene)methyl)-2,3-dihydro-1H-inden-1-one]	44	33	not specific	–	–
O=C1/C(=N\Nc2nc3ccccc3s2)Cc2ccc(C(F)(F)F)cc21 [7-107]	> 60	82	Low potency	–	–
CC1(C)C/C(=N/Nc2nc3ccccc3s2)c2ccccc21 [7-53]	13	4	effective on both 42D and 16D cells	–	10
FC1(F)Cc2ccccc2/C1=N/Nc1nc2ccccc2s1 [7-35]	12	1	Not effective on 42D or 16D cells	–	–
CN(/N=C1\CCc2ccccc21)c1nc2ccccc2s1 [7-30]	11	1	Non-specific. Effective on both 42D and 16D cells	–	–
Cc1nc(N/N=C2/CCc3ccccc32)sc1C [7-63]	11	1	Not effective on 42D or 16D cells	–	–
COc1ccc2c(c1)C/C(=N/Nc1nc3ccccc3s1)C2=O [7-99]	15	6	Potent but effective on both 42D and 16D cells	–	–
c1ccc(N/N=C2\CCc3ccccc32)nc1 [7-60]	8	0	Not effective on 42D or 16D cells	–	–
Clc1cccc2nc(N/N=C3\CCc4ccccc43)sc12 [7-34]	6	0	Non-specific. Effective on both 42D or 16D cells	–	–
O=c1c(=NNc2nc3ccccc3s2)c(=O)c2ccccc12 [7-85]	32	25	Not specific	–	–
Fc1ccc2c(c1)/C(=N\Nc1nc3ccccc3s1)CC2 [7-56]	8	0	effective on both 42D and 16D cells	–	10
c1ccc2c(c1)Cc1nn(-c3nc4ccccc4s3)cc1-2 [7-37]	16	7	Not effective on 42D or 16D cells	–	–
O=C(NNc1nc2ccccc2s1)C1Cc2ccccc2C1=O (stereo not shown) [7-86]	19	18	Not specific	–	–
O=C1/C(=N\Nc2nc(-c3ccccc3)cs2)Cc2ccccc21 [7-78]	32	32	Not effective on 42D or 16D cells	–	–

Source: patent US20250205204A1, “Transcription Factor Brn2 Inhibitory Compounds for Use as Therapeutics” (The University of British Columbia, priority 2021, published 2025)
